# According to patent publication US20170216235A1, “ADMINISTRATION OF ADAPALENE AND BENZOYL PEROXIDE FOR THE LONG-TERM TREATMENT OF ACNE VULGARIS” (GALDERMA RESEARCH & DEVELOPMENT, priority 2007, published 2017):
# Like-named read-outs stand apart in the source and are kept apart here.
# Legend:
# [1] = 40° C., cited from earlier work
# [2] = Retinoid degradation in the presence of BPO; assay type: physicochemical
# Description: Another technical problem to be solved for the formulation of a composition comprising both adapalene and BPO is the chemical and physical compatibility of these compounds within the same formulation provided that common retinoids are natural oxidization sensitive, visible light and ultra violet sensitive and BPO being a strong oxidizing agent.
# Indeed, BPO triggers rapidly degradation of natural oxidization sensitive retinoids: 50% of tretinoine is degraded within 2 hours and 95% is degraded within 24 hours.
structure (smiles),measurement,setting,value
"O=C(OOC(=O)c1ccccc1)c1ccccc1 [BPO, benzoyl peroxide]",BPO degradation time,[1]; in PEG 400 (0.5 mg/g),14 days
same,BPO degradation time,[1]; in ethanol,29 days
same,BPO degradation time,[1]; in propylene glycol,53 days
CC1=C(/C=C/C(C)=C/C=C/C(C)=C/C(=O)O)C(C)(C)CCC1 [tretinoine],retinoid degraded in the presence of BPO,[2]; within 2 hours,50%
same,retinoid degraded in the presence of BPO,[2]; within 24 hours,95%
"COc1ccc(-c2ccc3cc(C(=O)O)ccc3c2)cc1C12CC3CC(CC(C3)C1)C2 [adapalene, 6-[3-(1-adamantyl)-4-methoxyphenyl]-2-naphthoic acid]",adapalene degradation in the composition with BPO,[2]; within 24 hours,no adapalene degradation
